Structures are written as SMILES. Where a name gives a salt, the structure may show the parent alone. Read-outs that look alike come from different tables or passages of the source.

The subject of one data set is BB/Worcester rat. Put plainly: Tail tendon collagen solubility (pepsin), BB/Worcester rats. Conditions: 6 months; for Collagen Solubility: tail tendon. It counts as in vivo. How it is done:
Streptozotocin-diabetic male Lewis rats were treated for a 9-month time period with daily doses of aminoguanidine hydrochloride of 0, 6.25, 12.5, 25, and 50 mg/kg/day. After the treatment period, collagen in tail tendon fiber was subjected to solubility determination. Ten mg samples were incubated with gentle rocking for 5 hours at 4° C. in 5 ml of 0.5M acetic acid containing 1 mg pepsin. The samples were then centrifuged at 50,000× g for 1 hour, and the soluble and insoluble fraction separated by decanting. Each fraction was hydrolyzed in 6N HCl and total hydroxyproline measured.
The effect of aminoguanidine administration on collagen cross-linking was examined in a genetically-diabetic animal model, the BB/Worcester rat. Once the animals become diabetic, daily insulin injections are essential for survival. Glucose levels are maintained at a moderate level (250-350 mg %), much lower than in the streptozotocin-diabetic animals (>500 mg %).
Diabetic and non-diabetic controls were treated orally with aminoguanidine hydrochloride at 12.5 and 50 mg/kg/day for 6 months. Control animals were dosed with water only. Tail tendon collagen solubility was then determined by the pepsin method described in Example IX.

Another data set relates to calf skin collagen. Put plainly: Calf skin collagen crosslinking by glucose: solubilization in 2% sodium dodecyl sulfate. It counts as biochemical. Conditions: 140 mM glucose, 200 mM aminoguanidine, 3 weeks, 35° C. How it is done: As a further evaluation of the compound aminoguanidine as a model for the prevention of protein trapping, crosslinking and formation of advanced glycosylation end products, the following experiment using calf skin collagen was performed. Collagen is a protein in the skin responsible for the suppleness of skin, and crosslinking leads to wrinkling, decreased elasticity, reduced susceptibility to proteolytic degradation, and other changes.
Collagen from samples of calf skin were extracted into acetic acid and then precipitated with 0.6 M sodium chloride. These procedures removed from the solution skin collagen that was already permanently crosslinked or denatured. Native collagen fibrils were reformed by dialysis against 0.02M phosphate buffer, and these were incubated for 3 weeks at 35° C. in the presence of 140 mM glucose and with or without 200 mM aminoguanidine. After incubation, the samples were dialyzed and the degree of crosslinking was determined by two methods. First, the amount of reacted collagen which could be solubilized by treatment in 2% sodium dodecyl sulfate at 100° C. was measured.

The test system of another data set is gelatin (collagen). The data set can be described thus: Protein trapping: radioiodinated albumin bound to gelatin (collagen) agarose beads with glucose-6-phosphate. It is filed as biochemical. Conditions: agent 200 mN, 400 mN glucose-6-phosphate, two weeks, 37° C. An excerpt:
To more precisely measure the effect of the agents on the inhibition of protein crosslinking, an assay system was devised to measure the extent of in vitro binding of a soluble protein to an insoluble protein. This assay system mimics the events which occur in tissues in which serum proteins become bound to proteins in extravascular matrix and which lead to accumulation of protein and narrowing of vessel lumina in several other tissues. These events in vivo give rise to kidney disease and atherosclerotic disease, and lead to the pathologies associated with diabetes and aging.
To measure protein trapping (i.e., binding or accumulation), gelatin (collagen) was coupled to activated agarose beads (Affigel 10, Bio-Red Laboratories) by routine methods. After coupling, all remaining active sites on the beads were quenched by reaction with glycine ethyl ester.
The beads were incubated for two weeks with bovine serum albumin and 400 mN glucose-6-phosphate, a more reactive form of glucose which forms early glycosylation products with proteins more rapidly than does glucose. […] The bovine serum albumin was radioiodinated so that the amount which became bound to the beads could be measured. […]
After a two-week incubation of the reaction mixtures at 37° C., the beads were washed extensively with chaotropic agents and the covalently bound radioactivity was determined. […]

A further data set has as its system kidney. To be noted: in vivo; cited from earlier work.
Another data set has as its system rats. Conditions: hydrochloride, cited from earlier work; for toxicity in animals: in words.
In another data set the test system is diabetic rats. To be noted: cited from earlier work.
For a further data set, the system named is Laminin B1 mRNA. Conditions: diabetic rats; cited from earlier work.

The term LD50 denotes the dose expected to kill half of the subjects tested. On to `N=C(N)NN` [aminoguanidine hydrochloride], for which the “prevention of the diabetes-induced fall in tail tendon collagen solubility” value with BB/Worcester rat (12.5 and 50 mg/kg/day orally) is given as “prevented significantly, in a dose-dependent manner”. The “Collagen Solubility” value with BB/Worcester rat (Diabetic, 12.5 mg/kg/day orally) was found to be 66.7 ± 1.2%; in the data set on BB/Worcester rat (Diabetic, 50 mg/kg/day orally) it was 75.9 ± 0.4%; with BB/Worcester rat (Normal, 50 mg/kg/day orally) it was 88.2 ± 0.2%. In the data set on calf skin collagen, the “solubility of reacted collagen in 2% sodium dodecyl sulfate at 100° C.” value is “as soluble as collagen incubated in buffer alone”. Moreover, the “amount of protein trapping (radiolabeled albumin bound to collagen beads)” value in the data set on gelatin (collagen) was “greatly reduced”. Moreover, the “immunoglobulin trapping in the kidney” value in the data set with kidney is “reduction of immunoglobulin trapping in the kidney”. The results for the toxicity in animals entry with rats and in the data set on rats (listed as hydrochloride derivative) were “low toxicity in animals” and “very low toxicity”, respectively. Besides, the median lethal dose (LD50) in the data set on rats (subcutaneously, rats, listed as hydrochloride derivative) was 2984 mg/kg. Moreover, in the data set on diabetic rats, the “increased cross-linking of collagen (tendon fiber breaking time in urea bath, mechanical strength)” value was “prevented”. Besides, in the data set on Laminin B1 mRNA, the “diabetes-induced increase in laminin mRNA in the kidney” value is on record as “prevents the diabetes-induced increase in laminin MRNA in the kidney”.

The values above are taken from patent publication US20020115724A1, “Methods and agents for inhibiting protein aging” (priority 1985, published 2002).
